Results published in patent US20170202844A1, “PEDIATRIC CHEWABLE TABLET CONTAINING ANTIVIRAL AGENT AND METHOD FOR THE PREPARATION THEREOF” (PHARMATHEN S.A., priority 2014, published 2017).
Structures can show the parent of a compound that is named as a salt.

Tests used:
[1] = cited from earlier work
[2] = Drug loading into ion exchange resin, evaluated spectrophotometrically; assay type: physicochemical; conditions: for % w/w unbound drug: resin not named
Description: Mediums of different pH were examined in order to achieve the maximum drug loading into the resin. For this reason, the pH of solutions was adjusted at 3, 4, 5, 6, and 7. The drug loaded was evaluated spectrophotometrically. […] Buffer pH=7 enhanced more the effect of drug loading.
The next step was to examine the effect of drug loading into the resin for buffer pH=7 of different ion strength. For this reason, buffer pH=7 of normality 0.1N, 0.2N, 1N were prepared and the drug loaded was evaluated spectrophotometrically as before. Buffer pH=7 0.2N was the most suitable medium as the higher drug loading was reached. (61.60%±2.05%).
At this point of studies, the research focused on the type of IER. For this reason, resins of different functional group were examined to reach the higher drug loading. […] As a result, Purolite C100CaMR and Indion 204 were the most preferred resins that could form hydrogen bonds with the cationic center of Valaciclovir and prevent the release in saliva.

[3] = cited from earlier work; for oral bioavailability of acyclovir: oral administration

SMILES: CC(C)[C@H](N)C(=O)OCCOCn1cnc2c(=O)[nH]c(N)nc21 [Valaciclovir hydrochloride, L-valine, 2-[(2-amino-1,6-dihydro-6-oxo-9H-purin-9-yl)methoxy] ethyl ester, mono hydrochloride]
- solubility in dichloromethane ([1]; dichloromethane): insoluble
- solubility in water ([1]; water): soluble
- drug loading ([2]; Buffer pH=7 0.2N): 61.60%±2.05%
- % w/w unbound drug ([2]; medium pH 3): 79.85%±2.19%
- % w/w unbound drug ([2]; medium pH 4): 75.24%±2.91%
- % w/w unbound drug ([2]; medium pH 5): 66.69%±2.76%
- % w/w unbound drug ([2]; medium pH 6): 61.19%±2.61%
- % w/w unbound drug ([2]; medium pH 7): 30.91%±2.53%
- % w/w unbound drug ([2]; water): 72.61%±2.81%
- absorption from the gastrointestinal tract ([3]; after oral administration): rapidly absorbed
- conversion to acyclovir and L-valine ([3]; first-pass intestinal and/or hepatic metabolism): nearly completely converted

SMILES: Nc1nc2c(ncn2COCCO)c(=O)[nH]1 [acyclovir]
- water solubility ([3]; in vivo): poorly water soluble
- oral bioavailability of acyclovir [3]: poor oral bioavailability

SMILES: CC(C)[C@H](N)C(=O)OCCOCn1cnc2c(=O)[nH]c(N)nc21 [Valaciclovir, L-valyl acyclovir]
- oral bioavailability of acyclovir [3]: high bioavailability of acyclovir
